# Assays:
# Caco-2 cell monolayers [1] = assay: 24 hour resistance recovery test (Caco-2 cell recovery post treatment); format: cell-based, human
# Procedure: As part of these in vitro studies, the degree of Caco-2 cell recovery (as observed by degree of permeability and cell attachment 24 hours post treatment with each tight junction modulator) was also investigated. This 24 hour resistance recovery test is an indirect measure of epithelial cell disruption and data supporting a trend toward less in vitro disruption may be associated with less impact in vivo.
# [2] = Single dose pharmacokinetic study of enteric coated SAMe capsules in fasted male beagle dogs; format: in vivo; conditions: for effect on in vivo bioavailability of SAMe / amount of SAMe in the plasma versus control: beagle dogs, capsule 200 mg SAMe ion + 200 mg enhancer vs control capsule, result in words
# Procedure: Following collection, samples were centrifuged (at 4° C.) to separate the plasma fraction from the blood cells. The resulting plasma fraction was recovered and stored frozen (at −80° C.) using polypropylene tubes pending bioanalytical analysis.
# This method employs stable-isotope dilution liquid chromatography-electrospray […] tandem mass spectrometry (LC-ESI-MS/MS) to determine SAMe and SAH in plasma.
# Caco-2 cell monolayers [3] = assay: Caco-2 permeability of SAMe in the presence of tight junction modulators (Examples 3a, 3c); conditions: for effect on SAMe uptake / SAMe permeability: in the presence of the agent, result in words; for change in SAMe permeability across the Caco-2 cell monolayer: sulfobetaine 0.15 mM as the enhancer; for Permeability Coefficient: SAMe permeability; for Fold Transport Increase: SAMe transport vs SAMe control
# Procedure: (§1) Similar to the description above, the Caco-2 cell line was obtained from ATCC and grown in DMEM (Sigma-Aldrich) supplemented with 20% FBS (Sigma-Aldrich), 100 uM non-essential amino acids (Sigma-Aldrich) and 2 mM L-glutamine (Sigma-Aldrich). The Caco-2 cells grown in tissue culture flasks were trypsinized, suspended in medium, and the suspensions were applied to wells of a collagen-coated BioCoat Cell Environment in 24-well format at 24,500 cells per well. The cells were allowed to grow and differentiate for three weeks, feeding at 2-day intervals.
# (§2) For apical to basolateral permeability, a 2 mM aqueous solution of SAMe tosylate disulfate was added to the apical side and the amount of permeation was determined on the basolateral side. The apical and basolateral side buffers contained modified Transport Buffer (25 mM HEPES, 1× Hank's Balanced Salt Solution (Sigm-Aldrich)) pH 7.4. Caco-2 cells were incubated with these buffers for 2 hours, and the receiver side buffer was removed for analysis by LC/MS/MS. The receiver, donor, and dosing solution were diluted with an equal volume of 0.2 N HCl immediately after the assay in order to increase SAMe stability. Donor and dosing solution were diluted 100-fold to ensure that the concentration was within the linear range of the assay.
# (§3) The permeability (Papp) of SAMe is calculated using the following formula:
# (§4) Where dQ/dt is the rate of permeation, C0 is the initial concentration of test agent, and A is the area of the monolayer.
# (§5) In vitro Caco-2 testing was performed as detailed above using 0.15 mM of sulfobetaine-10, sulfobetaine-12, sulfobetaine-14, sulfobetaine-16, or sulfobetaine-18 as the enhancer.
# Caco-2 cell monolayers [4] = assay: Permeability of SAMe across Caco-2 cell monolayers (Example 3); conditions: for Papp_a-b Apical to Basal: apical to basolateral; for Papp_a-b Apical to Basal / Papp_b-a Basal to Apical: HBSS pH 7.4, 120 minute incubation, SAMe salt 2 mM; for Papp_b-a Basal to Apical: basolateral to apical
# Procedure: (§6) In these models, pure cell lines are grown on a semi-permeable membrane. Drug formulations are placed on the apical or basolateral side of the cell monolayer and transport is determined via measurement of drug concentrations on the other side of the membrane.
# (§7) The Caco-2 cell line utilized here was from the American Type Culture Collection (ATCC). Caco-2 cells are grown in Dulbecco's modified Eagle's medium (DMEM, Gibco) supplemented with 20% FBS (fetal bovine serum, Gibco), 100 uM non-essential amino acids (NEAA, Gibco) and 2 mM L-glutamine (Gibco). A Beckton Dickinson BIOCOAT® HTS Caco-2 Assay System Kit is used resulting in 6.6×10^5 cells/cm^2 seeding density (BIOCOAT is a registered trademark of Collaborative Biomedical Products, Inc., Bedford, Mass., USA). The cells used in transport studies are grown for 3 days before the experiments. The culturing conditions are 37° C. in an atmosphere of 5% CO2 and 100% humidity.
# (§8) For permeability across Caco-2 cell monolayers, the transport medium used was Hank's Buffered Salt Solution (HBSS; purchased from Gibco) containing D-glucose, and HEPES pH adjusted to 7.4. A 2 mM aqueous solution of either SAMe tosylate disulfate or SAMe 1,4 butanedisulfonate was added on the apical or basolateral side according to the manufacturer's procedure for the Caco-2 kit. Samples were measured after 120 minute incubation by liquid chromatography-mass spectrometry (LC/MS). The integrity of the monolayers was monitored using Lucifer Yellow Assay. […] Propranolol is a high permeability marker and was utilized as a positive control for a readily absorbed molecule.
# [5] = as above; conditions: human, Caco-2, pH 7.4
# Procedure: as §6, §7, §8
# [6] = Caco-2 permeability of SAMe in the presence of tight junction modulators (Examples 3a, 3c); conditions: human, Caco-2, pH 7.4, Permeability Coefficient, permeability control compound itself, 50 uM
# Procedure: as §1, §2, §3, §4, §5
# [7] = Plasma SAMe metabolites after 1600 mg of a commercially available SAMe formulation; format: in vivo; conditions: all time points after 1600 mg dose of commercially available SAMe; seven subjects
# Procedure: This finding is in contrast to the general dogma surrounding SAMe metabolism which continually reports that low SAMe bioavailability is due to active metabolism by the liver upon administration. […] In order to test this theory, the inventors measured the level of S-adenosyl homocysteine (SAH), the primary metabolite of SAMe, at various time points after administration of a 1600 mg dose of a commercially available SAMe formulation.
# [8] = literature reports; cited from earlier work
# Caco-2 cells = conditions: McMillan et al. 2005; cited from earlier work
# cultured rat hepatocytes = conditions: McMillan et al. 2005; cited from earlier work
# [9] = plasma, fasted male beagle dogs, single oral enteric coated capsule, 200 mg SAMe ion with or without 200 mg enhancer
smiles,measurement,setting,value
"CCCCCCCCCCCCCCCC[N+](C)(C)CCCS(=O)(=O)[O-] [3-(N,N-Dimethylpalmitylammonio)propanesulfonate]",TEER Resist. 24 hour post assay,Caco-2 cell monolayers [1]; enhancer 0.6 mM,33 ohms
same,effect on in vivo bioavailability of SAMe / amount of SAMe in the plasma versus control,[2],significant increase in the amount of SAMe present in the plasma
same,effect on SAMe uptake / SAMe permeability,Caco-2 cell monolayers [3],marked increase in SAMe permeability
same,change in SAMe permeability across the Caco-2 cell monolayer,Caco-2 cell monolayers [3],at least a five-fold increase
"CCCCCCCCCCCCCCCC(=O)OC(CC(=O)O)C[N+](C)(C)C.[Cl-] (stereo not drawn) [Palmitoyl Carnitine Chloride (PCC), Palmitoyl carnitine chloride]",Permeability Coefficient,"Caco-2 cell monolayers [3]; test article 0.15 mM, run 2",0.78 ×10⁻⁶ cm/s
same,Permeability Coefficient,"Caco-2 cell monolayers [3]; test article 0.15 mM, run 4",5 ×10⁻⁶ cm/s
same,Permeability Coefficient,"Caco-2 cell monolayers [3]; test article 0.4 mM, run 4",10 ×10⁻⁶ cm/s
same,effect on SAMe uptake / SAMe permeability,Caco-2 cell monolayers [3],marked increase in SAMe permeability
CC(C)NCC(O)COc1cccc2ccccc12 (stereo not drawn) [Propranolol],Papp_a-b Apical to Basal,Caco-2 cell monolayers [4],22.4 ×10⁻⁶ cm/s
same,Papp_b-a Basal to Apical,Caco-2 cell monolayers [4],18.4 ×10⁻⁶ cm/s
same,Papp A→B at 120 min,[5],22.4 ×10⁻⁶ cm/s
same,Papp B→A at 120 min,[5],18.4 ×10⁻⁶ cm/s
"CNC(=C[N+](=O)[O-])NCCSCc1ccc(CN(C)C)o1 [Ranitidine, reference compound]","Papp at 2 h, 50 uM",[6]; run 2,0.91 ×10⁻⁶ cm/s
same,"Papp at 2 h, 50 uM",[6]; run 3,0.91 ×10⁻⁶ cm/s
same,"Papp at 2 h, 50 uM",[6]; run 4,1 ×10⁻⁶ cm/s
"Nc1ncnc2c1ncn2[C@@H]1O[C@H](CSCC[C@H](N)C(=O)O)[C@@H](O)[C@H]1O [SAH, S-adenosyl homocysteine]",plasma concentration of SAH relative to SAMe,[7],significantly lower than the level of SAMe itself
"C[S+](CC[C@H](N)C(=O)[O-])C[C@H]1O[C@@H](n2cnc3c(N)ncnc32)[C@H](O)[C@@H]1O.O=S(=O)(O)CCCCS(=O)(=O)O (stereo partly drawn) [SAMe 1,4 butanedisulfonate]",Papp_a-b Apical to Basal,Caco-2 cell monolayers [4],0.5 ×10⁻⁶ cm/s
same,Papp_b-a Basal to Apical,Caco-2 cell monolayers [4],0.6 ×10⁻⁶ cm/s
"C[S+](CC[C@H](N)C(=O)O)C[C@H]1O[C@@H](n2cnc3c(N)ncnc32)[C@H](O)[C@@H]1O (stereo partly drawn) [SAMe, S-adenosyl-L-methionine]",SAMe bioavailability when orally administered,[8],less than 5%
same,fold increase in SAMe permeability,Caco-2 cell monolayers [4]; calcium-free buffer,13-24 fold
same,transport through a monolayer of Caco-2 cells,Caco-2 cells,poorly transported
same,absorption by cultured rat hepatocytes,cultured rat hepatocytes,poorly absorbed
CCCCCCCCCC(=O)[O-].[Na+] [Sodium Caprate],effect on in vivo bioavailability of SAMe / amount of SAMe in the plasma versus control,[2],did not enhance the in vivo bioavailability of SAMe
CCCCCCCC[N+](C)(C)CCCS(=O)(=O)[O-] [Sulfobetaine-8],TEER Resist. 24 hour post assay,Caco-2 cell monolayers [1]; enhancer 0.15 mM,1553 ohms
same,Permeability Coefficient,Caco-2 cell monolayers [3]; enhancer 0.15 mM (Table 7),0.218 ×10⁻⁶ cm/s
same,Fold Transport Increase,Caco-2 cell monolayers [3]; enhancer 0.15 mM (Table 7),1.2X
CCCCCCCCCCCC[N+](C)(C)CCCS(=O)(=O)[O-] [Sulfobetaine-12],TEER Resist. 24 hour post assay,Caco-2 cell monolayers [1]; enhancer 0.15 mM,1923 ohms
same,Permeability Coefficient,Caco-2 cell monolayers [3]; enhancer 0.15 mM (Table 7),0.257 ×10⁻⁶ cm/s
same,Fold Transport Increase,Caco-2 cell monolayers [3]; enhancer 0.15 mM (Table 7),1.4X
same,change in SAMe permeability across the Caco-2 cell monolayer,Caco-2 cell monolayers [3],did not improve SAMe permeability
CCCCCCCCCCCCCC[N+](C)(C)CCCS(=O)(=O)[O-] [Sulfobetaine-14],TEER Resist. 24 hour post assay,Caco-2 cell monolayers [1]; enhancer 0.15 mM,1892 ohms
same,effect on in vivo bioavailability of SAMe / amount of SAMe in the plasma versus control,[2],significant increase in the bioavailability of SAMe
same,SAMe AUC,[2]; [9],10226 ng·h/mL
same,SAMe Cmax,[2]; [9],4148 ng/mL
same,Permeability Coefficient,Caco-2 cell monolayers [3]; enhancer 0.15 mM (Table 7),0.654 ×10⁻⁶ cm/s
same,Fold Transport Increase,Caco-2 cell monolayers [3]; enhancer 0.15 mM (Table 7),5.0X
same,change in SAMe permeability across the Caco-2 cell monolayer,Caco-2 cell monolayers [3],at least a five-fold increase
CCCCCCCCCCCCCCCCCC[N+](C)(C)CCCS(=O)(=O)[O-] [Sulfobetaine-18],TEER Resist. 24 hour post assay,Caco-2 cell monolayers [1]; enhancer 0.15 mM,292 ohms
same,Permeability Coefficient,Caco-2 cell monolayers [3]; enhancer 0.15 mM (Table 7),0.649 ×10⁻⁶ cm/s
same,Fold Transport Increase,Caco-2 cell monolayers [3]; enhancer 0.15 mM (Table 7),5.0X
same,change in SAMe permeability across the Caco-2 cell monolayer,Caco-2 cell monolayers [3],at least a five-fold increase
"CC(=O)CC(c1ccccc1)c1c(O)c2ccccc2oc1=O (stereo not drawn) [Warfarin, reference compound]","Papp at 2 h, 50 uM",[6]; run 2,48.8 ×10⁻⁶ cm/s
same,"Papp at 2 h, 50 uM",[6]; run 3,49 ×10⁻⁶ cm/s
same,"Papp at 2 h, 50 uM",[6]; run 4,46.6 ×10⁻⁶ cm/s
CCCCCCCCCC[N+](C)(C)CCCS(=O)(=O)[O-] [sulfobetaine-10],change in SAMe permeability across the Caco-2 cell monolayer,Caco-2 cell monolayers [3],did not improve SAMe permeability

# Reference: patent US20130142847A1, “S-ADENOSYLMETHIONINE FORMULATIONS WITH ENHANCED BIOAVAILABILITY” (Methylation Sciences, Inc., priority 2009, published 2013)
